Measurements from ChEMBL document CHEMBL4334438, “Discovery of novel glycogen synthase kinase-3α inhibitors: Structure-based virtual screening, preliminary SAR and biological evaluation for treatment of acute myeloid leukemia” (Eur J Med Chem, 2019).

Key:
[1] = target: Activated CDC42 kinase 1 (Homo sapiens) (UniProt Q07912); assay: Inhibition of human ACK1 (1 to 389 residues) assessed as residual activity at 1 uM using EFPIYDFLPAKKK as substrate incubated for 40 mins in presence of [gamma-33ATP] by scintillation counting based radiometry assay relative to control
[2] = target: Serine/threonine-protein kinase B-raf (Homo sapiens) (UniProt P15056); assay: Inhibition of recombinant full length human B-Raf (416 to end residues) assessed as residual activity at 1 uM using myelin basic protein substrate incubated for 40 mins in presence of [gamma-33ATP] by scintillation counting based radiometry assay relative to control
[3] = target: Calcium/calmodulin-dependent protein kinase type IV (Homo sapiens) (UniProt Q16566); assay: Inhibition of recombinant full length human CaMK4 assessed as residual activity at 1 uM […] incubated for 40 mins in presence of [gamma-33ATP] by scintillation counting based radiometry assay relative to control
[4] = target: Cyclin-dependent kinase 14/Cyclin-Y (Homo sapiens) (UniProt O94921+Q8ND76); assay: Inhibition of recombinant full length human CDK14/cyclinY assessed as residual activity at 1 uM in presence of [gamma-33ATP] by scintillation counting based radiometry assay relative to control; format: protein-complex assay
[5] = target: Casein kinase 2 (Homo sapiens) (UniProt P67870+P68400+P19784+Q8NEV1); assay: Inhibition of recombinant human CK2 assessed as residual activity at 1 uM in presence of [gamma-33ATP] by scintillation counting based radiometry assay relative to control; format: protein assay
[6] = test system: Epidermal growth factor receptor (Homo sapiens), P00533 [L861Q]; assay: Inhibition of recombinant human EGFR L861Q mutant (696 to end residues) assessed as residual activity at 1 uM using poly(Glu, Tyr) 4:1 as substrate at 40 mins in presence of [gamma-33ATP] by scintillation counting based radiometry assay relative to control
[7] = test system: Fibroblast growth factor receptor 1 (Homo sapiens), P11362 [V561M]; assay: Inhibition of recombinant human FGFR1 V561M mutant (456 to 765 residues) assessed as residual activity at 1 uM using GGEEEEYFELVKKKK as substrate at 40 mins in presence of [gamma-33ATP] by scintillation counting based radiometry assay relative to control
[8] = target: Fibroblast growth factor receptor 4 (Homo sapiens) (UniProt P22455); assay: Inhibition of recombinant human FGFR4 (442 to 755 residues) assessed as residual activity at 1 uM using poly(Glu, Tyr) 4:1 as substrate at 40 mins in presence of [gamma-33ATP] by scintillation counting based radiometry assay relative to control
[9] = test system: eIF-2-alpha kinase GCN2 (Homo sapiens), Q9P2K8 [E556G]; assay: Inhibition of recombinant full length human GCN2 E556G mutant assessed as residual activity at 1 uM using RSRSRSRSRSRSRSR as substrate at 40 mins in presence of [gamma-33ATP] by scintillation counting based radiometry assay relative to control
[10] = target: Inhibitor of nuclear factor kappa-B kinase subunit alpha (Homo sapiens) (UniProt O15111); assay: Inhibition of full length human IKKalpha assessed as residual activity at 1 uM using peptide as substrate after 40 mins by [gamma-33ATP] radiometric assay relative to control
[11] = target: Mitogen-activated protein kinase 8 (Homo sapiens) (UniProt P45983); assay: Inhibition of human JNK1alpha1 assessed as residual activity at 1 uM using ATF2 as substrate after 40 mins by [gamma-33ATP] radiometric assay relative to control
Homo sapiens [12] = species on record: Homo sapiens; assay: Inhibition of human MAPK2 assessed as residual activity at 1 uM relative to control
[13] = target: Serine/threonine-protein kinase PAK 5 (Homo sapiens) (UniProt Q9P286); assay: Inhibition of recombinant human PAK5 (425 to end residues) assessed as residual activity at 1 uM using RRRLSFAEPG as substrate measured after 40 mins in presence of [gamma33P]ATP by scintillation counting method relative to control
[14] = target: Serine/threonine-protein kinase pim-3 (Homo sapiens) (UniProt Q86V86); assay: Inhibition of recombinant human Pim3 (2 to end residues) assessed as residual activity at 1 uM using RSRHSSYPAGT as substrate measured after 40 mins in presence of [gamma33P]ATP by scintillation counting method relative to control
Homo sapiens [15] = species on record: Homo sapiens; assay: Inhibition of recombinant full length human PKBalpha S478G mutant assessed as residual activity at 1 uM using GRPRTSSFAEGKK as substrate measured after 40 mins in presence of [gamma33P]ATP by scintillation counting method relative to control
[16] = test system: Protein kinase C eta type (Homo sapiens), P24723 [UNDEFINED MUTATION]; assay: Inhibition of recombinant human PKCeta V108L/G109R/L392Q mutant (2 to end residues) assessed as residual activity at 1 uM using ERMRPRKRQGSVRRRV as substrate incubated for 40 mins in presence of [gamma33P]ATP by scintillation counting based radiometry assay relative to control
Sequence of Protein kinase C eta type (Homo sapiens), P24723 [UNDEFINED MUTATION] (P24723 whole entry, looked up, stated change not applied): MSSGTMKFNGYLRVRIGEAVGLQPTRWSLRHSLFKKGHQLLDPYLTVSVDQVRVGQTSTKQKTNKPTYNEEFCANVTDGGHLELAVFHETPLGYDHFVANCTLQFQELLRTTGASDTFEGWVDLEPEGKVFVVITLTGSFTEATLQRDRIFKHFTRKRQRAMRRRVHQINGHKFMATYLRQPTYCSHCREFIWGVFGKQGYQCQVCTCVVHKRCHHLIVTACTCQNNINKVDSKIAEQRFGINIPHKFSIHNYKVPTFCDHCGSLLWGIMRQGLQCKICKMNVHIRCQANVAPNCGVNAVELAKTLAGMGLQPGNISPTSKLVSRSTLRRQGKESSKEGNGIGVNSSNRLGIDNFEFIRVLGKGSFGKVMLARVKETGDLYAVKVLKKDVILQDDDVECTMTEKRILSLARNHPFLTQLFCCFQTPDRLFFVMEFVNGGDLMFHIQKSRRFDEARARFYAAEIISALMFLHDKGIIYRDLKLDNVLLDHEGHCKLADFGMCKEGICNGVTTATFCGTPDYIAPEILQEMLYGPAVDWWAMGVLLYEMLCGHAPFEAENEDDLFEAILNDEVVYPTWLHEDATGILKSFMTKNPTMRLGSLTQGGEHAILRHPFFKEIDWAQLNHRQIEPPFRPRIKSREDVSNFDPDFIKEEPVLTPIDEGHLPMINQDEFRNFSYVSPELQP

[17] = test system: Serine/threonine-protein kinase D1 (Homo sapiens), Q15139 [UNDEFINED MUTATION]; assay: Inhibition of recombinant full-length human PKCmu R135A mutant assessed as residual activity at 1 uM using KKLNRTLSVA as substrate incubated for 40 mins in presence of [gamma33P]ATP by scintillation counting based radiometry assay relative to control
Sequence of Serine/threonine-protein kinase D1 (Homo sapiens), Q15139 [UNDEFINED MUTATION] (Q15139 whole entry, looked up, stated change not applied, the tested form may be a part): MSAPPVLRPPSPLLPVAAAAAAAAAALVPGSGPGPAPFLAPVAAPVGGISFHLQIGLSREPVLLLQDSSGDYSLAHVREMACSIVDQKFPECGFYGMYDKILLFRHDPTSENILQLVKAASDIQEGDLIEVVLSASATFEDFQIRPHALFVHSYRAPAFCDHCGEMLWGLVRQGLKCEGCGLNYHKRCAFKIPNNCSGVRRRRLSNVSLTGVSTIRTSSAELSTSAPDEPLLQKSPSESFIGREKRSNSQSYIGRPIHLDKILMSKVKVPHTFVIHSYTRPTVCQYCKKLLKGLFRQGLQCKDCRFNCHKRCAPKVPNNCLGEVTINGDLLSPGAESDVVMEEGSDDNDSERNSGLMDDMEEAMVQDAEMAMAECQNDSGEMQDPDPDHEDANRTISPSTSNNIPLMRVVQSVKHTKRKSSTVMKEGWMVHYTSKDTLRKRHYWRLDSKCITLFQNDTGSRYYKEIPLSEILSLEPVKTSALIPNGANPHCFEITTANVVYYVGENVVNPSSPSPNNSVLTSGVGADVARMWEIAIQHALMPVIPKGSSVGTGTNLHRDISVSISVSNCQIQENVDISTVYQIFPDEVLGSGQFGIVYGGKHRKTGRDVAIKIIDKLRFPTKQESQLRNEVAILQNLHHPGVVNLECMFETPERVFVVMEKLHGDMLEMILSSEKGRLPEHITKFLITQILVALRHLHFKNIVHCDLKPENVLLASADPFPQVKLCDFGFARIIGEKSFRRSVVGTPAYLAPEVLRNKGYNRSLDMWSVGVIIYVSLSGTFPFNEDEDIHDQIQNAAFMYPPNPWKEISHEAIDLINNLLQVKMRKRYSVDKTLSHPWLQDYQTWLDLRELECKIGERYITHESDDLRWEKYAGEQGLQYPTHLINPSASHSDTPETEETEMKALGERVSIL

[18] = target: Receptor-interacting serine/threonine-protein kinase 1 (Homo sapiens) (UniProt Q13546); assay: Inhibition of recombinant human RIPK1 (8 to 322 residues) assessed as residual activity at 1 uM using myelin basic protein as substrate measured after 120 mins in presence of [gamma33P]ATP by scintillation counting method relative to control
Sequence of Receptor-interacting serine/threonine-protein kinase 1 (Homo sapiens) (Q13546 whole entry, the tested form may be a part): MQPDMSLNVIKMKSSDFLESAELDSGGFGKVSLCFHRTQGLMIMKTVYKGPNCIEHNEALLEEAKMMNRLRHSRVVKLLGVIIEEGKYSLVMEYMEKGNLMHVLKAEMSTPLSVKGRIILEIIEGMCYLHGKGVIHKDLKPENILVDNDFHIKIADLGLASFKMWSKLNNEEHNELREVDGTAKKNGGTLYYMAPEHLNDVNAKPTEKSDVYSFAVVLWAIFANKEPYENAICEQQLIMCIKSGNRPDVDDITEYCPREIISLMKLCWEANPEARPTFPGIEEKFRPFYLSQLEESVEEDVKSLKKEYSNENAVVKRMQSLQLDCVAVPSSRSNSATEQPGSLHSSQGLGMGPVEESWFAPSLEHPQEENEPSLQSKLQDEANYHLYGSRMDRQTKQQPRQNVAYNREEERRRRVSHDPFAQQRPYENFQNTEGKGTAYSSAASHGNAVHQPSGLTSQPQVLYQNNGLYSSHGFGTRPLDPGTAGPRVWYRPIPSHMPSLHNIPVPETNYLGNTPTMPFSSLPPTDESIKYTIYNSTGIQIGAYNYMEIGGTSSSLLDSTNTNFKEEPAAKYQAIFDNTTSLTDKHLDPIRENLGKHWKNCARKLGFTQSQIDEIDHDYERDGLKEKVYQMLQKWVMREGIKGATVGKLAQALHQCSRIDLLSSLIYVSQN

[19] = target: Transcription initiation factor TFIID subunit 1-like (Homo sapiens) (UniProt Q8IZX4); assay: Inhibition of human TAF1L (1428 to end residues) assessed as residual activity at 1 uM using RRRFRPASPLRGPPK as substrate measured after 120 mins in presence of [gamma33P]ATP by scintillation counting method relative to control
[20] = target: TRAF2 and NCK-interacting protein kinase (Homo sapiens) (UniProt Q9UKE5); assay: Inhibition of human TNIK (1 to 367 residues) assessed as residual activity at 1 uM using RLGRDKYKTLRQIRQ as substrate measured after 40 mins in presence of [gamma33P]ATP by scintillation counting method relative to control
Sequence of TRAF2 and NCK-interacting protein kinase (Homo sapiens) (Q9UKE5 whole entry, looked up, the tested form may be a part): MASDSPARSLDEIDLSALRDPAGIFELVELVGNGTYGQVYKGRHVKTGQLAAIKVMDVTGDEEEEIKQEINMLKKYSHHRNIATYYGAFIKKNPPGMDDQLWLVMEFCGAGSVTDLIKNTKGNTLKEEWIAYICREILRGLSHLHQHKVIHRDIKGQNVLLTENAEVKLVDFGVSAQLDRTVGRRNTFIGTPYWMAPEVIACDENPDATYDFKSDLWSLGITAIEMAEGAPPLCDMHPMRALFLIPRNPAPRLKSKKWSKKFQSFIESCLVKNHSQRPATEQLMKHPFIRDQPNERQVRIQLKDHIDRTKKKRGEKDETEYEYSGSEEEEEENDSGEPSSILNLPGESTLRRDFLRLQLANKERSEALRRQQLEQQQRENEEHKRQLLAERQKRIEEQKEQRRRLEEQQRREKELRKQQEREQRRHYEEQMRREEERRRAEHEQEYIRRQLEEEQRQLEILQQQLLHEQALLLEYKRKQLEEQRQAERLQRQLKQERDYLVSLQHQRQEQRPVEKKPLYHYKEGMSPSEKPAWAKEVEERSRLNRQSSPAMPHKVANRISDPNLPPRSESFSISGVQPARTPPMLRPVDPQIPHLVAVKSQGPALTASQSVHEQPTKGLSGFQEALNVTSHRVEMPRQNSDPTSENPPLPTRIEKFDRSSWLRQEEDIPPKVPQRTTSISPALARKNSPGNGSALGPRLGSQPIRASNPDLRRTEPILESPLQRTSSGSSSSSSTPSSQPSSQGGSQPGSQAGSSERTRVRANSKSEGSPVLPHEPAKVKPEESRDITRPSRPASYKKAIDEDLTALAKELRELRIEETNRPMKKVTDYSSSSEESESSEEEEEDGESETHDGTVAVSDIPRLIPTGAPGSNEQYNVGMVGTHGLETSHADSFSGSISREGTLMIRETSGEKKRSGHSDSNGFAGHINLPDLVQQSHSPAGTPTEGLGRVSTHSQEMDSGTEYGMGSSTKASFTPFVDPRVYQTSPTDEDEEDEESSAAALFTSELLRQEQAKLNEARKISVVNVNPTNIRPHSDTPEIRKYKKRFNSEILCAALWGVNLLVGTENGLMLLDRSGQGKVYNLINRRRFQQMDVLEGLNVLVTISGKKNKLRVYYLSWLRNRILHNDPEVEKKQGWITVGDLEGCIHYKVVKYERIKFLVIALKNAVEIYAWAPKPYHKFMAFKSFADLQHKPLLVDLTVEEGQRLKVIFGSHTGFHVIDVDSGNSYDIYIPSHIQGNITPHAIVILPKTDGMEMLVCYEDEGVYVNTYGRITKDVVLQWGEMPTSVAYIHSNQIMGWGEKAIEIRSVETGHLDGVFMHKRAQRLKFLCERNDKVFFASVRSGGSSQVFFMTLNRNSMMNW

[21] = target: Non-receptor tyrosine-protein kinase TYK2 (Homo sapiens) (UniProt P29597); assay: Inhibition of human TYK2 (875 to end residues) assessed as residual activity at 1 uM using GGMEDIYFEFMGGKKK as substrate measured after 40 mins in presence of [gamma33P]ATP by scintillation counting method relative to control
Sequence of Non-receptor tyrosine-protein kinase TYK2 (Homo sapiens) (P29597 whole entry): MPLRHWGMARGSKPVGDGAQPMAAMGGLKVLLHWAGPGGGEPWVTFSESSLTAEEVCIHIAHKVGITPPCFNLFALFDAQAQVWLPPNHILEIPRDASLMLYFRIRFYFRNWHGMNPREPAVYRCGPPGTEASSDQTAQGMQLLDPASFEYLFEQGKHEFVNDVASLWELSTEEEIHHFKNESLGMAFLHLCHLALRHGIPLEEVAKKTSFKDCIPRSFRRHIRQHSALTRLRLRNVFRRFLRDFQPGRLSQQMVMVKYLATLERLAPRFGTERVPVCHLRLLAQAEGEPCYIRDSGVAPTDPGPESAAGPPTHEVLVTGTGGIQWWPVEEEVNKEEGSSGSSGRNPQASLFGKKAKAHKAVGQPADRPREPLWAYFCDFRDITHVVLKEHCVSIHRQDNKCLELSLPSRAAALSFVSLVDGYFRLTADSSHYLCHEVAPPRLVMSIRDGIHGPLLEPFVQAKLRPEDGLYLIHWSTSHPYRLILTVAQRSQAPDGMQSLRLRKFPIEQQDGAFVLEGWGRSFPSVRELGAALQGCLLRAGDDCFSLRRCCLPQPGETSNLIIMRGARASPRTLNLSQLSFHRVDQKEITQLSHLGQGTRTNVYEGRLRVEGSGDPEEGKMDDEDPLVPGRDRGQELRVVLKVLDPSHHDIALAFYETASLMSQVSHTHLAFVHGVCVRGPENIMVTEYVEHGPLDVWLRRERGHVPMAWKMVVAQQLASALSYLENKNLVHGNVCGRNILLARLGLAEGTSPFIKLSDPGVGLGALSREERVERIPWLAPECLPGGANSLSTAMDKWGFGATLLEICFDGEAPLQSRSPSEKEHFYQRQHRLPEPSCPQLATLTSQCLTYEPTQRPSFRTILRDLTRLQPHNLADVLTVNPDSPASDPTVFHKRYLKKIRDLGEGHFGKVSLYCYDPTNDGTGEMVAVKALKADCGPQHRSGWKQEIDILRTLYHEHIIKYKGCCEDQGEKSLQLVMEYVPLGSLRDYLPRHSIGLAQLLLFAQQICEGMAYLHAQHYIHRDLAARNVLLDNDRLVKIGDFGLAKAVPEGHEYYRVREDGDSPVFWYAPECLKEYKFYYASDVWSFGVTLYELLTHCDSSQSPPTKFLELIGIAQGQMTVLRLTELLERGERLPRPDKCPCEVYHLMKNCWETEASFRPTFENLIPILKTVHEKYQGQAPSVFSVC

Homo sapiens [22] = species on record: Homo sapiens; assay: Inhibition of recombinant full-length human PI3K p110delta/p85alpha N253S mutant at 1 uM assessed as residual activity at 1 uM using phosphatidylinositol-4, 5-bisphosphate as substrate measured after 40 mins by fluorescence assay

## N=C1NC(=O)/C(=C\c2ccc(-c3cccc([N+](=O)[O-])c3)o2)S1
[1]
  Activity: 93%
[2]
  Activity: 97%
[3]
  Activity: 87%
[4]
  Activity: 84%
[5]
  Activity: 43%
[6]
  Activity: 85%
[7]
  Activity: 91%
[8]
  Activity: 106%
[9]
  Activity: 104%
[10]
  Activity: 102%
[11]
  Activity: 101%
Homo sapiens [12]
  Activity: 103%
[13]
  Activity: 103%
[14]
  Activity: 21%
Homo sapiens [15]
  Activity: 97%
[16]
  Activity: 101%
[17]
  Activity: 97%
[18]
  Activity: 100%
[19]
  Activity: 51%
[20]
  Activity: 74%
[21]
  Activity: 107%
Homo sapiens [22]
  Activity: 98%

## C=CCOC(=O)c1cc(-c2ccc(/C=C3/NC(=S)NC3=O)o2)ccc1Cl
[1]
  Activity: 96%
[2]
  Activity: 90%
[3]
  Activity: 95%
[4]
  Activity: 91%
[5]
  Activity: 58%
[6]
  Activity: 106%
[7]
  Activity: 102%
[8]
  Activity: 95%
[9]
  Activity: 106%
[10]
  Activity: 104%
[11]
  Activity: 99%
Homo sapiens [12]
  Activity: 99%
[13]
  Activity: 98%
[14]
  Activity: 33%
Homo sapiens [15]
  Activity: 97%
[16]
  Activity: 99%
[17]
  Activity: 99%
[18]
  Activity: 106%
[19]
  Activity: 66%
[20]
  Activity: 52%
[21]
  Activity: 94%
Homo sapiens [22]
  Activity: 94%
